Measured values from patent publication US11732264B2, “Compositions and methods for treating COVID-19” (Vast Sea Biotechnology, Inc., priority 2020, dated 2023).
d = 2'-deoxy (DNA); r = 2'-OH (RNA)

Columns and labels:
Format in all cases: cell-based
[1] = system: human primary lung small airway epithelial cells (HSAEC); experiment: FACS detection of intercellular delivery of oligos in HSAEC; settings: for cells with intercellular signals of the oligos, Arginine compared with lipofectamine (FACS): 10 ul/well Arginine vs lipofectamine
[2] = system: primary human lung small airway epithelial cells; experiment: Fluorescence microscopy of oligo entry into HSAEC; settings: 24-48 hours, fluorescent filter 10x/20x, lipofectamine, poly-arginine or no reagent per FIG. 1
[3] = system: primary human lung bronchial/tracheal epithelial cells; experiment: Fluorescence microscopy of oligo entry into HBTEC; settings: 24-48 hours, fluorescent filter 10x/20x, delivery per FIG. 20
[4] = system: Human Primary Nasal Epithelial Cells; experiment: Fluorescence microscopy of oligo entry into HNEpC; settings: 24-48 hours, fluorescent filter 10x/20x, delivery per FIG. 35

## TGTTAATTGGAACGCCTTGTC (Cy3 label, position not given here) [VS_ASO_2-Cy3]
[1]
  cells with intercellular signals of the oligos, Arginine compared with lipofectamine (FACS): more cells with intercellular signals of the oligos
[1]; Arginine only (10 ul/well)
  intensities of fluorescent signals in cells (FACS) vs no-treatment control: significantly higher
[1]; with lipofectamine
  intensities of fluorescent signals in cells (FACS) vs no-treatment control: significantly higher

## TGTTAATTGGAACGCCTTGTC (FANA modified, pattern not given here, FITC label) [VS_ASO_1-FANA-FITC]
[2]
  entry into cells, microscopic analysis: entry
[3]
  entry into cells, microscopic analysis: entry
[4]
  entry into cells, microscopic analysis: can enter epithelial cells
[1]; without lipofectamine or Arginine reagents
  intensities of fluorescent signals in cells (FACS) vs no-treatment control: significantly stronger

## VS_DsiRNA-Cy5: DsiRNA SEQ ID NOs: 23 & 24, target N-protein, Cy5 labeled (chain 1 AAACUAAAAUGUCUGAUAAUGGACC; chain 2 GGUCCAUUAUCAGACAUUUUAGUUUGU; chain 1: sugars from the 5' end r23 d2, backbone not given here; chain 2: chemistry not given here; Cy5 label)
[2]
  entry into cells, microscopic analysis: entry
[3]
  entry into cells, microscopic analysis: entry
[4]
  entry into cells, microscopic analysis: can enter epithelial cells
[1]
  cells with intercellular signals of the oligos, Arginine compared with lipofectamine (FACS): more cells with intercellular signals of the oligos
[1]; Arginine only (10 ul/well)
  intensities of fluorescent signals in cells (FACS) vs no-treatment control: significantly higher
[1]; with lipofectamine
  intensities of fluorescent signals in cells (FACS) vs no-treatment control: significantly higher
